Source: publication PMC7217150, “Synthesis, Modification, and Biological Evaluation of a Library of Novel Water‐Soluble Thiopyridone‐Based Organometallic Complexes and Their Unexpected (Biological) Behavior” (Chemistry (Weinheim an Der Bergstrasse, Germany), 2020)
Like-named read-outs stand apart in the source and are kept apart here.

Tests used:
A549 [1] = assay: MTT cytotoxicity assay, monolayer culture; format: cell-based, human; settings: exposure time 96 h, means ± SDs
CH1/PA‐1 [2] = assay: MTT cytotoxicity assay, monolayer culture; format: cell-based, human; settings: CH1/PA‐1, MTT assay, exposure time 96 h, means ± SDs
SW480 [3] = assay: MTT cytotoxicity assay, monolayer culture; format: cell-based, human
[4] = pH 7.2
Description: Stock solutions containing the desired complex in DMSO (5 mM) were diluted with phosphate buffer (pH 7.2) to a final concentration of […] compound in 1 % DMSO/20 mM buffer and directly analyzed by four different isocratic UHPLC runs (Δ=5 %). The lipophilicity parameters logkw and lipophilicity indices φ0 were calculated according to literature.7, 37

A549 [5] = settings: A549 multicellular spheroids, 96 h drug exposure
Description: (§1) A549, CH1/PA‐1 and SW480 cells were grown in MEM supplemented with 10 % fetal calf serum (FCS; from Biowest), 1 mM sodium pyruvate, 4 mM L‐glutamine and 1 % v/v nonessential amino acids (from 100×solution) and L‐glutamine. HCT‐116 cells were maintained in McCoy's 5a medium supplemented with 10 % FCS and L‐glutamine. Adherent monolayer cultures were grown in 75 cm^2 flasks. For spheroid culture, A549, CH1/PA‐1 and HCT‐116 cells were harvested from culture flasks by trypsinization, resuspended in their respective supplemented medium and seeded in ultra‐low attachment round‐bottom 96‐well plates (Corning Costar) at a density of 500 viable cells per well. Plates were incubated for 96 h to allow spheroid formation prior to use for the tests. All cultures were incubated in a humidified incubator at 37 °C with 5 % CO2.
(§2) Cytotoxicity in multicellular spheroids was determined by the fluorimetric resazurin assay. […] After incubation for 96 h, 20 μL of a 440 μM resazurin sodium salt solution in PBS were added to each well, and the plates were incubated for further 16 h. Fluorescence was measured with a Synergy HT reader (BioTek) with an excitation wavelength of 530 nm and emission wavelength of 590 nm. For both assays, at least three independent experiments (or two in case of poor activity) were performed, each with triplicates per concentration level, and the 50 % inhibitory concentrations (IC50) relative to untreated controls were interpolated from concentration‐effect curves.

CH1/PA‐1 [6] = settings: CH1/PA‐1 multicellular spheroids, 96 h drug exposure
Description: as §1, §2

HCT‐116 = HCT‐116 multicellular spheroids, 96 h drug exposure
Description: as §1, §2

CH1/PA‐1 [7] = assay: Cell cycle distribution, flow cytometry with propidium iodide; format: cell-based, human; settings: for Cell cycle distribution G1, % / Cell cycle distribution G2/M, % / Cell cycle distribution S, %: 24 h, mean ± SD; for Relative change in cell cycle distribution G1, % / Relative change in cell cycle distribution G2/M, % / Relative change in cell cycle distribution S, %: difference to untreated control; for decrease in G1 phase: CH1/PA‐1 cells
Method in brief: (§3)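 CH1/PA-1 and SW480 cells were allowed to attach for 24 h, then exposed continuously to compounds for 24 h at 37 °C. Nuclei were stained overnight at 4 °C with propidium iodide (50 μg mL^−1) in Triton/citrate buffer. 5×10^3 cells were analysed by flow cytometry, with G1/S/G2/M fractions fitted by the Watson Pragmatic model.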

SW480 [8] = assay: as above; format: cell-based, human; settings: for Cell cycle distribution G1, % / Cell cycle distribution G2/M, % / Cell cycle distribution S, %: 24 h, mean ± SD; for Relative change in cell cycle distribution G1, % / Relative change in cell cycle distribution G2/M, % / Relative change in cell cycle distribution S, %: difference to untreated control
Method in brief: as §3

[9] = system: human cancer cell lines CH1/PA‐1, SW480, A549; settings: tested cancer cell lines

Cc1c([O-])c(=S)ccn1Cc1ccccc1.Cc1ccc(C(C)C)cc1.[Cl-].[Ru+2] [Compound 3 c, Chlorido[1‐benzyl‐2‐methyl‐3‐(oxo‐κO)‐pyridine‐4(1H)‐thionato‐κS](η^6‐p‐cymene)ruthenium(II)]
IC50 (A549 [1]): 1.3 ± 0.1 µM
IC50 (CH1/PA‐1 [2]): 1.04 ± 0.03 µM
IC50 (SW480 [3]; SW480, MTT assay, exposure time 96 h, means ± SDs): 3.1 ± 0.2 µM
IC50 (SW480 [3]; SW480, as listed in Table 3): 3.06 ± 0.2 µM
φ0 (chromatographic lipophilicity index) [4]: 6.04
IC50 (A549 [5]): 287 ± 3 µM
IC50 (CH1/PA‐1 [6]): 242 ± 11 µM
IC50 (HCT‐116): 211 ± 28 µM
Cell cycle distribution G1, % (CH1/PA‐1 [7]; CH1/PA-1, 2.5 µM): 30 ± 1%
Cell cycle distribution G2/M, % (CH1/PA‐1 [7]; CH1/PA-1, 2.5 µM): 23 ± 6%
Cell cycle distribution S, % (CH1/PA‐1 [7]; CH1/PA-1, 2.5 µM): 47 ± 8%
Relative change in cell cycle distribution G1, % (CH1/PA‐1 [7]; CH1/PA-1, 2.5 µM): -10%
Relative change in cell cycle distribution G2/M, % (CH1/PA‐1 [7]; CH1/PA-1, 2.5 µM): -1%
Relative change in cell cycle distribution S, % (CH1/PA‐1 [7]; CH1/PA-1, 2.5 µM): 11%
Cell cycle distribution G1, % (CH1/PA‐1 [7]; CH1/PA-1, 5 µM): 27 ± 3%
Cell cycle distribution G2/M, % (CH1/PA‐1 [7]; CH1/PA-1, 5 µM): 30 ± 3%
Cell cycle distribution S, % (CH1/PA‐1 [7]; CH1/PA-1, 5 µM): 43 ± 3%
Relative change in cell cycle distribution G1, % (CH1/PA‐1 [7]; CH1/PA-1, 5 µM): -13%
Relative change in cell cycle distribution G2/M, % (CH1/PA‐1 [7]; CH1/PA-1, 5 µM): 6%
Relative change in cell cycle distribution S, % (CH1/PA‐1 [7]; CH1/PA-1, 5 µM): 7%
Cell cycle distribution G1, % (CH1/PA‐1 [7]; CH1/PA-1, 10 µM): 24 ± 6%
Cell cycle distribution G2/M, % (CH1/PA‐1 [7]; CH1/PA-1, 10 µM): 30 ± 7%
Cell cycle distribution S, % (CH1/PA‐1 [7]; CH1/PA-1, 10 µM): 47 ± 4%
Relative change in cell cycle distribution G1, % (CH1/PA‐1 [7]; CH1/PA-1, 10 µM): -16%
Relative change in cell cycle distribution G2/M, % (CH1/PA‐1 [7]; CH1/PA-1, 10 µM): 6%
Relative change in cell cycle distribution S, % (CH1/PA‐1 [7]; CH1/PA-1, 10 µM): 11%
decrease in G1 phase (CH1/PA‐1 [7]; 2.5 μM): 10%
decrease in G1 phase (CH1/PA‐1 [7]; 10 μM): about 16%
Cell cycle distribution G1, % (SW480 [8]; SW480, 2.5 µM): 45 ± 3%
Cell cycle distribution G2/M, % (SW480 [8]; SW480, 2.5 µM): 17 ± 4%
Cell cycle distribution S, % (SW480 [8]; SW480, 2.5 µM): 38 ± 6%
Relative change in cell cycle distribution G1, % (SW480 [8]; SW480, 2.5 µM): -3%
Relative change in cell cycle distribution G2/M, % (SW480 [8]; SW480, 2.5 µM): -2%
Relative change in cell cycle distribution S, % (SW480 [8]; SW480, 2.5 µM): 5%
Cell cycle distribution G1, % (SW480 [8]; SW480, 5 µM): 44 ± 2%
Cell cycle distribution G2/M, % (SW480 [8]; SW480, 5 µM): 20 ± 3%
Cell cycle distribution S, % (SW480 [8]; SW480, 5 µM): 36 ± 0%
Relative change in cell cycle distribution G1, % (SW480 [8]; SW480, 5 µM): -4%
Relative change in cell cycle distribution G2/M, % (SW480 [8]; SW480, 5 µM): 1%
Relative change in cell cycle distribution S, % (SW480 [8]; SW480, 5 µM): 3%
Cell cycle distribution G1, % (SW480 [8]; SW480, 10 µM): 48 ± 7%
Cell cycle distribution G2/M, % (SW480 [8]; SW480, 10 µM): 21 ± 4%
Cell cycle distribution S, % (SW480 [8]; SW480, 10 µM): 32 ± 7%
Relative change in cell cycle distribution G1, % (SW480 [8]; SW480, 10 µM): 0%
Relative change in cell cycle distribution G2/M, % (SW480 [8]; SW480, 10 µM): 2%
Relative change in cell cycle distribution S, % (SW480 [8]; SW480, 10 µM): -1%
decrease in G1 phase (SW480 [8]; SW480 cells, at applicable concentrations): < 9%
intracellular accumulation relative to 3 a, in words (SW480 cells): seven times as high
Cellular accumulation (SW480 cells; ICP‐MS, 2 h exposure, 50 μM): 147±54 fg/cell
IC50 values, in words [9]: low micromolar range
